Results taken from patent EP0326331B1, “Substituted quinolines and cinnolines” (Dow AgroSciences LLC, priority 1988, dated 1989).

How the values were obtained:
Format in all cases: in vivo
[1] = system: Puccinia recondita tritici (leaf rust); test: Test 1 greenhouse foliar spray screen, leaf rust on wheat; settings: disease control rating, foliar spray on wheat, 400 ppm (+++ at 100 ppm)
[2] = system: Botrytis cinerea (gray mold); test: Test 1 greenhouse foliar spray screen, gray mold on grape berries; settings: disease control rating, spray on grape berries, 400 ppm (+++ at 100 ppm)
corn rootworm = test: Mite/insect screen, CRW; settings: percent mortality; CRW RATE 12.00 PPM; read-out: CRW RESULTS %
Procedure, shortened: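 Compounds were dissolved in 50:50 acetone/alcohol containing sulfonate/nonionic emulsifier blends (23 g/L plus 13 g/L), then diluted with water to the test concentrations. Percent mortality was scored after standard exposure periods.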

[3] = system: southern armyworm (Spodopetra eridania Cramer); test: Mite/insect screen, SAW; settings: Spodoptera eridania, percent mortality; SAW, SM & MA RATE 200 PPM; read-out: SAW RESULTS %
Procedure, shortened: (§1)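 Compounds dissolved in 50:50 acetone/alcohol containing sulfonate/nonionic emulsifier blends, then diluted with water to the indicated concentrations. Leaves sprayed on both surfaces to runoff at 10 psi and dried one hour. Percent mortality scored after standard exposure periods.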

[4] = system: Septoria tritici (leaf blotch); test: Test 1 greenhouse foliar spray screen, leaf blotch on wheat; settings: disease control rating, foliar spray on wheat, 400 ppm (+++ at 100 ppm)
[5] = system: Venturia inaequalis (apple scab); test: Test 1 greenhouse foliar spray screen, apple scab on apple seedling; settings: disease control rating, foliar spray on apple seedling, 400 ppm (+++ at 100 ppm)
[6] = system: melon aphids (Aphis gossypii Glover); test: Mite/insect screen, MA; settings: Aphis gossypii, percent mortality; SAW, SM & MA RATE 200 PPM; read-out: MA RESULTS %
Procedure, shortened: as §1

[7] = system: Pseudoperonospora cubensis (downy mildew); test: Test 1 greenhouse foliar spray screen, downy mildew on squash; settings: disease control rating, foliar spray on squash, 400 ppm (+++ at 100 ppm)
[8] = system: Pyricularia oryzae (rice blast); test: whole plant or invertebrate; settings: disease control rating, foliar spray on rice, 400 ppm (+++ at 100 ppm)
[9] = system: Erysiphe graminis tritici (powdery mildew); test: Test 1 greenhouse foliar spray screen, powdery mildew on wheat; settings: disease control rating, foliar spray on wheat, 400 ppm (+++ at 100 ppm)
[10] = system: Twospotted spider mites (Tetranychus urticae Koch); test: Mite/insect screen, SM; settings: Tetranychus urticae, percent mortality; SAW, SM & MA RATE 200 PPM; read-out: SM RESULTS %
Procedure, shortened: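 Activity is expressed as percent mortality at the indicated spray concentrations. Plants are sprayed to runoff on upper and lower leaf surfaces with aqueous dilutions of an acetone/alcohol emulsifiable formulation, then dried for one hour.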

SMILES	LEAF RUST [1]	GRAY MOLD [2]	mortality at 12 ppm (corn rootworm) [%]	mortality at 200 ppm [3] [%]	LEAF BLOT [4]	APPL SCAB [5]	mortality at 200 ppm [6] [%]	DOWN MDEW [7]	RICE BLAST [8]	POWD MDEW [9]	mortality at 200 ppm [10] [%]
Cc1cccc2c(NCCc3ccccc3)ccnc12 [Example 27, 8-methyl-N-(2-phenylethyl)-4-quinolinamine]	+ (20-89% control at 400 ppm)	- (0-19% control at 400 ppm)	0	0	- (0-19% control at 400 ppm)	- (0-19% control at 400 ppm)	0	+++ (90-100% control at 100 ppm)	++ (90-100% control at 400 ppm)	+ (20-89% control at 400 ppm)	0
Cc1cc(C)c2nccc(NCCc3ccccc3)c2c1 [Example 28, 6,8-dimethyl-N-(2-phenylethyl)-4-quinolinamine]	+ (20-89% control at 400 ppm)	- (0-19% control at 400 ppm)	0	0	- (0-19% control at 400 ppm)	- (0-19% control at 400 ppm)	0	+++ (90-100% control at 100 ppm)	++ (90-100% control at 400 ppm)	+ (20-89% control at 400 ppm)	0
Cc1ccc2nccc(NCCc3ccccc3)c2c1 [Example 30, 6-methyl-N-(2-phenylethyl)-4-quinolinamine]	+ (20-89% control at 400 ppm)	- (0-19% control at 400 ppm)	0	0	- (0-19% control at 400 ppm)	- (0-19% control at 400 ppm)	0	+++ (90-100% control at 100 ppm)	+ (20-89% control at 400 ppm)	- (0-19% control at 400 ppm)	0
Clc1ccc2c(NCCc3ccccc3)ccnc2c1 [Example 31, 7-chloro-N-(2-phenylethyl)-4-quinolinamine]	+ (20-89% control at 400 ppm)	- (0-19% control at 400 ppm)	0	0	- (0-19% control at 400 ppm)	- (0-19% control at 400 ppm)	0	+++ (90-100% control at 100 ppm)	+ (20-89% control at 400 ppm)	++ (90-100% control at 400 ppm)	0
Cc1ccc2c(NCCc3ccccc3)ccnc2c1C [Example 32, 7,8-dimethyl-N-(2-phenylethyl)-4-quinolinamine]	- (0-19% control at 400 ppm)	- (0-19% control at 400 ppm)	0	0	- (0-19% control at 400 ppm)	- (0-19% control at 400 ppm)	0	+++ (90-100% control at 100 ppm)	+ (20-89% control at 400 ppm)	+ (20-89% control at 400 ppm)	0
